These are literature values, as cited in patent US7671051B2, “Inhibitors of 11-β-hydroxy steroid dehydrogenase type 1” (Biovitrum AB, priority 2001, dated 2010).

The test system of this data set is bone nodule formation.

As to `CC1(C)[C@@H](OC(=O)CCC(=O)O)CC[C@]2(C)[C@H]3C(=O)C=C4[C@@H]5C[C@@](C)(C(=O)O)CC[C@]5(C)CC[C@@]4(C)[C@]3(C)CC[C@@H]12` [carbenoxolone], the “negative effect (of glucocorticoid) on bone nodule formation” value is on record as “blocked”.
